The experiment concerns the target human VR1 (Homo sapiens, UniProt Q8NER1). Description: Human VR1 antagonist assay (Ca2+ imaging). Type of experiment: cell-based. To be noted: Ca2+ imaging assay using human VR1 highly expressing cells, fura-2/AM; agonist stimulation (capsaicin 300 nM or acid pH 5.8), not given. An excerpt: Human VR1 Antagonist Assay
VR1 antagonistic activity can be determined by the Ca^2+ imaging assay using human VR1 highly expressing cells. The cells that highly express human VR1 receptors are obtainable from several different conventional methods. The one standard method is cloning from human Dorsal Root Ganglion (DRG) or kidney according to the methods such as described in the journal article; Nature, 389, pp 816-824, 1997. Alternatively VR1 receptors highly expressing human keratinocytes are also known and published in the journal article (Biochemical and Biophysical Research Communications, 291, pp 124-129, 2002). […] Furthermore, the method to up regulate human VR1 gene, which is usually a silent gene or don't produce detectable level of VR1 receptors, is also available to obtain propriety cells. Such genetic modification method was described in detail; Nat. Biotechnol., 19, pp 440-445, 2001.
The cells that express human VR1 receptors were maintained in culture flask at 37° C. in an environment containing 5% CO2 until use in the assay. The intracellular Ca^2+ imaging assay to determine VR1 antagonistic activities were done by following procedures.
The culture medium was removed from the flask and fura-2/AM fluorescent calcium indicator was added to the flask at a concentration of 5 μM in the medium. The flask was placed in CO2 incubator and incubated for 1 hour. Then the cells expressing the human VR1 receptors were detached from the flask follow by washing with phosphate buffer saline, PBS(−) and re-suspended in assay buffer. The 80 μl of aliquot of cell suspension (3.75×10^5 cells/ml) was added to the assay plate and the cells were spun down by centrifuge (950 rpm, 20° C., 3 minutes).
The compounds of the examples were tested in the Human VR1 antagonist assay described above.
The capsaicin-induced changes in the intracellular calcium concentration were monitored using FDSS 6000 (Hamamatsu Photonics, Japan), a fluorometric imaging system. The cell suspension in Krebs-Ringer HEPES (KRH) buffer (115 mM NaCl, 5.4 mM KCl, 1 mM MgSO4, 1.8 mM CaCl2, 11 mM D-Glucose, 25 mM HEPES, 0.96 mM Na2HPO4, pH 7.3) were pre-incubated with varying concentrations of the test compounds or KRH buffer (buffer control) for 15 minutes at room temperature under the dark condition. Then capsaicin solution, which gives 300 nM in assay mixture, was automatically added to the assay plate by the FDSS 6000.
The Acid-induced changes in the intracellular calcium concentration were monitored using FDSS 6000 (Hamamatsu Photonics, Japan), a fluorometric imaging system. The cell suspension in resting buffer (HBSS supplemented with 10 mM HEPES, pH 7.4) were pre-incubated with varying concentrations of the test compounds or resting buffer (buffer control) for 15 minutes at room temperature under the dark condition. The cells were automatically added the stimulating solution (HBSS supplemented with MES, final assay buffer pH5.8) by the FDSS 6000.
The monitoring of the changes in the fluorescence signals (λex=340 nm/380 nm, λem=510-520 nm) was initiated at 1 minute prior to the addition of capsaicin solution or acidic buffer and continued for 5 minute.

Chain of human VR1 (Q8NER1 whole entry): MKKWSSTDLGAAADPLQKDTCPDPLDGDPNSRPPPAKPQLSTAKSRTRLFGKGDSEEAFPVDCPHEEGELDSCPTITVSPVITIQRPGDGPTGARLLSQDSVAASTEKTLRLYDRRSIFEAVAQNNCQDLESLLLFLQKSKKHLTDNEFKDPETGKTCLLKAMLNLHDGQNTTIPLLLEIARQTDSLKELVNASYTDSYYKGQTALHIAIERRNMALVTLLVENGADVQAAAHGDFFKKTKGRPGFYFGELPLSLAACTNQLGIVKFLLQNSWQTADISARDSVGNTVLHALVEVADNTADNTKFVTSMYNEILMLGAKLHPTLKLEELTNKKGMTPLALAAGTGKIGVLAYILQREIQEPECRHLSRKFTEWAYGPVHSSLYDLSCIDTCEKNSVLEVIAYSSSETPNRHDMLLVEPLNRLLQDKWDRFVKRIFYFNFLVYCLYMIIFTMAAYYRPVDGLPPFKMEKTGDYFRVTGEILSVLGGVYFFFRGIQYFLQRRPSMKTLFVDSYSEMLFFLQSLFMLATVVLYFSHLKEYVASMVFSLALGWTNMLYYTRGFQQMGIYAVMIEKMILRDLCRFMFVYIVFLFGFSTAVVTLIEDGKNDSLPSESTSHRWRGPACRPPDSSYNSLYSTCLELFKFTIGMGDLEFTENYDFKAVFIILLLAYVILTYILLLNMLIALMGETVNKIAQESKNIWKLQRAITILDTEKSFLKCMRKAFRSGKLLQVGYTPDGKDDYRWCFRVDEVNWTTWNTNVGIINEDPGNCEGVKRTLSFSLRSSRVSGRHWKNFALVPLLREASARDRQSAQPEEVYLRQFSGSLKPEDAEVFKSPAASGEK

`Cc1cccc2c(CNC(=O)c3ccc4nc(C(C)(C)C(F)(F)F)ccc4c3)ccnc12` [Example C16, N-[(8-methylquinolin-4-yl)methyl]-2-(2,2,2-trifluoro-1,1-dimethylethyl)quinoline-6-carboxamide]: the IC50 came out at 437 nM.
With `CC(O)(c1ccc2cc(C(=O)NCc3cccc4cnccc34)ccc2n1)C(F)(F)F` (stereo not drawn) [Example C17, N-(isoquinolin-5-ylmethyl)-2-(2,2,2-trifluoro-1-hydroxy-1-methylethyl)quinoline-6-carboxamide] the figure was 176 nM.
As for `CCC(NC(=O)c1ccc2nc(C(C)(C)C(F)(F)F)ccc2c1)c1ccnc2ccccc12` (stereo not drawn) [Example C18, N-(1-quinolin-4-ylpropyl)-2-(2,2,2-trifluoro-1,1-dimethylethyl) quinoline-6-carboxamide], the figure is 136 nM; as for `CC(C)(c1ccc2cc(C(=O)NC(CO)c3ccnc4ccccc34)ccc2n1)C(F)(F)F` (stereo not drawn) [Example C20, N-(2-hydroxy-1-quinolin-4-ylethyl)-2-(2,2,2-trifluoro-1,1-dimethylethyl)quinoline-6-carboxamide], 570 nM.
As for `CC(NC(=O)c1cnc2cc(C(C)(C)C)ccc2c1)c1ccnc2ccccc12` (stereo not drawn) [Example D1, 7-tert-butyl-N-(1-quinolin-4-ylethyl)quinoline-3-carboxamide], the figure is 246 nM.
As to `Oc1cc2c(cc1O)CN(C(=S)NCCc1ccc(Cl)cc1)CCC2` [capsazepine, reference compound], the IC50 fell in the range of 237 to 455 nM.

In general, IC50 refers to the concentration that gives 50% inhibition. Low readings indicate greater potency in that assay, high ones weaker potency in that assay.

The record behind these values is patent US8134004B2, “Substituted N-bicyclicalkyl bicycliccarboxyamide compounds” (Pfizer Inc., priority 2006, dated 2012).
